In patent US12606546B2, “Small molecule inhibitors of calcium channel activity and uses thereof” (Arizona Board of Regents on Behalf of the University of …, priority 2020, dated 2026):
Where two headings read alike, the source gives them in different places.

Legend:
[1] = tested on: high voltage activated calcium channels; experiment: Fura-2AM calcium imaging, 90 mM KCl-evoked Ca2+ influx in DRG neurons; conditions: separated enantiomers, data not shown
rats [2] = conditions: oxaliplatin, paw immersion test, 100 mg/kg p.o., T60 min; cited from earlier work
[3] = tested on: total calcium current in small- to medium-sized DRG neurons; experiment: Whole-cell patch clamp of total Ca2+ currents in DRG neurons; type: cell-based, rat; conditions: for Activation V1/2 / Activation k (slope factor) / Inactivation V1/2 / Inactivation k (slope factor): Boltzmann fit, mean ± SEM; for peak calcium current density: overnight (DMSO −96.91±12.39); for reduction in Ca2+ currents at peak current density: overnight, compared to 0.1% DMSO
Experimental: Recordings were obtained from acutely dissociated DRG neurons as described in Bellampalli et al. Patch-clamp recordings were performed at room temperature (22-24° C.). Currents were recorded using an EPC 10 Amplifier-HEKA (HEKA Elektronik, Ludwigshafen, Germany) linked to a computer with Patchmaster software. DRG neurons were incubated overnight (˜16-24 h) with 20 μM of 3-25-R and 3-14-3-S.
For total calcium current (ICa^2+) recordings, the external solution consisted of the following (in mM): 110 N-methyl-D-glucamine, 10 BaCl2, 30 TEA-Cl, 10 HEPES, 10 glucose, 0.001 TTX (pH 7.29 adjusted with NaOH, and mOsm/L=310). Patch pipettes were filled with an internal solution containing (in mM): 150 […], 10 HEPES, 5 Mg-ATP, and 5 BAPTA, (pH 7.24 adjusted with CsOH, and from a holding potential of −90 mV to obtain the current-voltage (I-V) relation. Normalization of currents to each cell's capacitance (pF) was performed to allow for collection of current density data. For I-V curves, functions were fitted to data using a non-linear least squares analysis. I-V curves were fitted using double Boltzmann functions: f=a+g1/(1+exp((x−V1/21)/k1))+g2/(1+exp(−(x−V1/22)/k2)) where x is the prepulse potential, V1/2 is the mid-point potential and k is the corresponding slope factor for single Boltzmann functions. Double Boltzmann fits were used to describe the shape of the curve, not to imply the existence of separate channel populations. Numbers 1 and 2 simply indicate first and second mid-points; a along with g are fitting parameters.
Activation curves were obtained from the I-V curves by dividing the peak current at each depolarizing step by the driving force according to the equation: G=I/(Vmem−Erev), where I is the peak current, Vmem is the membrane potential and Erev is the reversal potential. The conductance (G) was normalized against the maximum conductance (Gmax). Steady-state inactivation (SSI) curves were obtained by applying an H-infinity protocol that consisted of 1.5-seconds conditioning pre-pulses from −100 to +30 mV in 10-mV increments followed by a 20-millisecond test pulse to +10 mV. Inactivation curves were obtained by dividing the peak current recorded at the test pulse by the maximum current (Imax). Activation and SSI curves were fitted with the Boltzmann equation.

CaV3.1 = molecular target: T1, CaV3.1 (Homo sapiens, UniProt O43497); experiment: Whole-cell patch clamp in HEK293T cells transiently expressing CaV3.1; type: cell-based; conditions: for effect on CaV3.1 mediated currents: 50 μM
T1 construct: expressed in transfected cells; host or cells: HEK293T
T1 sequence (O43497 whole entry): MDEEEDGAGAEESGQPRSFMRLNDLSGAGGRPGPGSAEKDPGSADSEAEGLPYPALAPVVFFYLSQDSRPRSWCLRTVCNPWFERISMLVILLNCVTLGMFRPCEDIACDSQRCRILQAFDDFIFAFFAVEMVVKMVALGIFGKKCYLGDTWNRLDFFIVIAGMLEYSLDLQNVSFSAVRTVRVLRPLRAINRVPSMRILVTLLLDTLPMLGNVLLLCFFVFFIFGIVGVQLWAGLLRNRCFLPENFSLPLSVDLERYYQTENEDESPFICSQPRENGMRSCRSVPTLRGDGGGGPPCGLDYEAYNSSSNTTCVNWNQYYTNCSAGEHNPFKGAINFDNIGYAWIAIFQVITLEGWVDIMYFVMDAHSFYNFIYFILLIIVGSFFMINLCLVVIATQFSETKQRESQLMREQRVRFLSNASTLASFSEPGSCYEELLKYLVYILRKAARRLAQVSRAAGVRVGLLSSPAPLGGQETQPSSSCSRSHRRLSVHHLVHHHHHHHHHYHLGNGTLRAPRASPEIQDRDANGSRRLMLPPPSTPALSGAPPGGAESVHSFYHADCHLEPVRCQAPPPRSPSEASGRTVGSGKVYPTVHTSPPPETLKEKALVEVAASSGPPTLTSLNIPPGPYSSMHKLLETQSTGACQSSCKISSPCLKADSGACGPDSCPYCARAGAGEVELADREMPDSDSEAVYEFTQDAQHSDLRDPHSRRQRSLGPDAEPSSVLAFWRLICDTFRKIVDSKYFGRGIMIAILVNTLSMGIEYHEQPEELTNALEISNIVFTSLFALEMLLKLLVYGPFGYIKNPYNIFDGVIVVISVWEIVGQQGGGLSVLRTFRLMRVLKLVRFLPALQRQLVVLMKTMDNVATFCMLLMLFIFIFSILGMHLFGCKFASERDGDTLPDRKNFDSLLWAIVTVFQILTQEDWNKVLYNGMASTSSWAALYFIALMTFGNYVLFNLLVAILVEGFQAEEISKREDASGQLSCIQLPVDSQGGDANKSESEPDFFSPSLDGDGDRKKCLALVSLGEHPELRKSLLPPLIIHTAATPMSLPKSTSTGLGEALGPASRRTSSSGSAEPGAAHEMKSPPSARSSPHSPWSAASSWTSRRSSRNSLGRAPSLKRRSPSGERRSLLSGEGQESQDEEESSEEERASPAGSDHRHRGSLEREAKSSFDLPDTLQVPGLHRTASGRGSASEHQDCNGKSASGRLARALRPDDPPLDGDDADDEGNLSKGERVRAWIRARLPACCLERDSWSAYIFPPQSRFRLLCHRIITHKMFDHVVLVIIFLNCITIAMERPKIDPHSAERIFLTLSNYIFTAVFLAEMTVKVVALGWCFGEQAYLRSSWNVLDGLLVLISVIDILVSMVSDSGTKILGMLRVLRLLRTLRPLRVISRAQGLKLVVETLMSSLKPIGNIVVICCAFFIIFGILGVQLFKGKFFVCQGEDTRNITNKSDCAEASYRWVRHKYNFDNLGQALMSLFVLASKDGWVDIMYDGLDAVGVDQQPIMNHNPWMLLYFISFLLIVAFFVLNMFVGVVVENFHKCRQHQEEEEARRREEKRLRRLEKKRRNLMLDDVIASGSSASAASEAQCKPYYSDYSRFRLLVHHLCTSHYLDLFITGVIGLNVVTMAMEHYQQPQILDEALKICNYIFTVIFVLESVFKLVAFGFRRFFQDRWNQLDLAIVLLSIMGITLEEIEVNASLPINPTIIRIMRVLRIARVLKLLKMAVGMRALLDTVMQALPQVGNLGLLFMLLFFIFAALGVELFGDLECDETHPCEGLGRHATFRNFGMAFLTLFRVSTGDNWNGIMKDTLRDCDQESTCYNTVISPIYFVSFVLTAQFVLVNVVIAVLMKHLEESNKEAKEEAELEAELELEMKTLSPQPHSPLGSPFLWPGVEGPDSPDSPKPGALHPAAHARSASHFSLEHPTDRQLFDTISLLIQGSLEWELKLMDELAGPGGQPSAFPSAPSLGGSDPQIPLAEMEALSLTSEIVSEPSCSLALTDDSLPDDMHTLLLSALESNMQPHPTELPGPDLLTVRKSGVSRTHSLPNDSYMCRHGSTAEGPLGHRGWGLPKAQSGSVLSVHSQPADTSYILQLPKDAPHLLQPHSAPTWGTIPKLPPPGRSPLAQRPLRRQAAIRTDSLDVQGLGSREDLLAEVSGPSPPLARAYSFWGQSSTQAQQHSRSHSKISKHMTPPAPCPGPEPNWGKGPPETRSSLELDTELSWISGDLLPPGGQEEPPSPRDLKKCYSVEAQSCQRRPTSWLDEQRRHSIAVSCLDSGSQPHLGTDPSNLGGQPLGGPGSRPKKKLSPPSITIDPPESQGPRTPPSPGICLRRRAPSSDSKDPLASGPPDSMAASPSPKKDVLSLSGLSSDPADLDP
Experimental: (§1) Human embryonic kidney HEK293T cells were cultured in DMEM supplemented with 10% fetal bovine serum and 1% penicillin/streptomycin sulfate, maintained in standard conditions (5% CO2, 37° C., saturated humidity). Cells were transfected with 2 μg of either of the channel cDNAs using Lipofectamine 2000 when cell confluence reached 70-90%. Four to six hours after transfection, cells were seeded onto poly-l-lysine-coated coverslips. Positively transfected cells were indicated by the fluorescence of co-transfected enhanced green fluorescent protein (0.2 μg). All the experiments were performed 36 hours after cell transfection.
(§2) For electrophysiological recording, the external solution contained (in mM): 105 CsCl, TEA-Cl, 2 CaCl2), 1 MgCl2, and 10 glucose (pH 7.4 adjusted with CsOH, and mOsm/L=295-305). The internal solution consisted of (in mM): 120 CsMeSO4, 11 EGTA, 2 Mg-ATP, and HEPES (pH 7.4 adjusted with CsOH, and mOsm/L=295-305). All experiments were conducted at room temperature (22-24° C.). The T-type calcium currents were elicited by a depolarization to −20 or −10 mV for 200-millisecond from a hold potential of −90 mV. Data were collected by the Patchmaster software in a HEKA EPC-10 USB patch-clamp system. Voltage errors were minimized by using 80% series resistance compensation. The capacitance artifact was canceled by using the computer-controlled circuitry of the patch-clamp amplifier. The concentration-response curves of the test compounds on CaV3 channels were fitted to a Hill equation to estimate the potency of the compounds (IC50).

CaV3.2 = molecular target: T2, CaV3.2 (Homo sapiens, UniProt O95180); experiment: Whole-cell patch clamp in HEK293T cells transiently expressing CaV3.2; type: cell-based; conditions: for effect on CaV3.2 mediated currents: 50 μM
T2 construct: expressed in transfected cells; host or cells: HEK293T
Experimental: as §1, §2

CaV3.3 = molecular target: T3, CaV3.3 (Homo sapiens, UniProt Q9P0X4); experiment: Whole-cell patch clamp in HEK293T cells transiently expressing CaV3.3; type: cell-based; conditions: for effect on CaV3.3 mediated currents: 50 μM
T3 construct: expressed in transfected cells; host or cells: HEK293T
T3 sequence (Q9P0X4 whole entry, species assumed): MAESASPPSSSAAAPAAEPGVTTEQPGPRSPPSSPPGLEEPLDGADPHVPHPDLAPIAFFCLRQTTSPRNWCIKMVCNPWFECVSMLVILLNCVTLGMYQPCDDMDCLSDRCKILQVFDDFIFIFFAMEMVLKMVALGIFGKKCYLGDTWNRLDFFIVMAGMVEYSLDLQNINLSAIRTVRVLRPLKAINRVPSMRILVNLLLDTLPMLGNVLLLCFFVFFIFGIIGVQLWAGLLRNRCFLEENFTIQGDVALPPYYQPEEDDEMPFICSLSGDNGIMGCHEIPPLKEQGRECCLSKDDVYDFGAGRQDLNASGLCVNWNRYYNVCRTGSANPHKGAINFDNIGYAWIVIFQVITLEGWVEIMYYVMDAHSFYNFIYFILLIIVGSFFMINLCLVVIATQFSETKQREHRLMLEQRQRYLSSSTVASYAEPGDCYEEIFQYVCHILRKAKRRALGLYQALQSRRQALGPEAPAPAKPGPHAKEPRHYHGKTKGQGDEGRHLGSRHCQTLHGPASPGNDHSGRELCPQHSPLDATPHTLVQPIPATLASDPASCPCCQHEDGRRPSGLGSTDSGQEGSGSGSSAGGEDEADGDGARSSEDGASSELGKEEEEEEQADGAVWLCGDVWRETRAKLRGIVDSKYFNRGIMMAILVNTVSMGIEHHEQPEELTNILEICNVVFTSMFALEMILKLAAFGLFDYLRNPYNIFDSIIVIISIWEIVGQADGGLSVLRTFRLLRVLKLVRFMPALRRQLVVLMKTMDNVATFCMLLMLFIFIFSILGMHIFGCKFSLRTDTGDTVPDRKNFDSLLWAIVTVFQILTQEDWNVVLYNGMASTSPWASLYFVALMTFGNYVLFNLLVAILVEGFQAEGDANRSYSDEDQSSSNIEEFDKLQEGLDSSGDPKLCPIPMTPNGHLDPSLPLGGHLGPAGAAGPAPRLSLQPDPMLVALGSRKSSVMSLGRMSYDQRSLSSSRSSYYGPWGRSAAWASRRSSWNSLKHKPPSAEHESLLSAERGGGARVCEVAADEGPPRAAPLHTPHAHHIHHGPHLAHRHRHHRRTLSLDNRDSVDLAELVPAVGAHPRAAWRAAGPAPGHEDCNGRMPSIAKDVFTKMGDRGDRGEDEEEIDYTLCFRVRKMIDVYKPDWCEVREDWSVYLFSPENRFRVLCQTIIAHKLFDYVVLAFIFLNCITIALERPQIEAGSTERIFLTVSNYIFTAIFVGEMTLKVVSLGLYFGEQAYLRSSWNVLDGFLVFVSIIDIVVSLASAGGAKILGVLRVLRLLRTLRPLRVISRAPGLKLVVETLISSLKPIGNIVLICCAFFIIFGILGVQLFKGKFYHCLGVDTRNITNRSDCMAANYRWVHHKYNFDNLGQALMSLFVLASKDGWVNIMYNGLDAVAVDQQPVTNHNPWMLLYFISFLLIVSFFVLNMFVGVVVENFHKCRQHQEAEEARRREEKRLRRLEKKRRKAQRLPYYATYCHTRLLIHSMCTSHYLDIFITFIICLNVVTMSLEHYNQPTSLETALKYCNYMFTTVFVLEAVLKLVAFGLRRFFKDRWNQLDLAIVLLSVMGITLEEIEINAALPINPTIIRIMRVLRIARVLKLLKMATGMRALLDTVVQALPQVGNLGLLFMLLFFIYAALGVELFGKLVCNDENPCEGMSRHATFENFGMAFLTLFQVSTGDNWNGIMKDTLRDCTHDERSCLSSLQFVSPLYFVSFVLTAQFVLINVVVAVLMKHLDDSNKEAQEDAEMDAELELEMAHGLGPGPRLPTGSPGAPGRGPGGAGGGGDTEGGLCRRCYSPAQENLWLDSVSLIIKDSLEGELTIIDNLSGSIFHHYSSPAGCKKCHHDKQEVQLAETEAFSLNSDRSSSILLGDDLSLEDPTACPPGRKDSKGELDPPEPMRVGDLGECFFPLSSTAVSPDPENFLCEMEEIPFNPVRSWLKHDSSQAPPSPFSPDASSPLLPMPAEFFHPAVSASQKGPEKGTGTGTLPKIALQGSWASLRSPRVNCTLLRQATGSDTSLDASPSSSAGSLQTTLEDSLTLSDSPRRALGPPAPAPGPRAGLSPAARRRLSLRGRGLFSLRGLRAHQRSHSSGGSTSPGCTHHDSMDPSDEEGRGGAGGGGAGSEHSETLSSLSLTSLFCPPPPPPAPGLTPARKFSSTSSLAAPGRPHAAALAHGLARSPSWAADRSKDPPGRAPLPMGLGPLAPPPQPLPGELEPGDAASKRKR
Experimental: as §1, §2

[4] = molecular target: influenza virus polymerase PA-PB1 protein-protein interactions (Influenza A virus, UniProt P03433); conditions: previously tested [93]; cited from earlier work
rats [5] = conditions: carrageenan, paw pressure test, 30 mg/kg p.o., T60 min; cited from earlier work
rats [6] = conditions: kaolin, gait score, 30 mg/kg p.o., T60 min; cited from earlier work
healthy rats [7] = experiment: ALGOGram: healthy rats, paw pressure test; type: in vivo, rat; conditions: 0.4 μg/μl i.t., 120 min after treatment
Experimental: (§3) The analgesic profile of 3-14-3-S was analyzed by an in vivo screening tool, ALGOGram™ (ANS Biotech, Riom, France). This platform allowed for obtaining information about the effects of compounds in 5 different pain areas (Acute and tonic pain, inflammatory pain, neuropathic pain, postoperative pain and visceral pain), by comparing their activity on a battery of 10 validated behavioral pain models with an ANS Biotech reference historical database (Table 1). Assessment of the efficacy, and analgesic effects of a single administration (0.4 μg/μl, i.t.) 3-14-3-S was analyzed in the rat models of. Tail flick test in healthy rats, paw pressure test in healthy rats, acetic acid-induced writhing, formalin test, Bennett model of peripheral mononeuropathy, oxaliplatin-induced neuropathy, carrageenan-induced mechanical hyperalgesia, kaolin-induced arthritis, Brennan model of incisional pain; and trinitrobenzene sulfonic acid (TNBS)-induced visceral hypersensitivity (Table 2).
(§4) Testing: 120 min after treatment. n=4/model/test (excepted for 3-14-3-S-treated group in Oxaliplatin model n=3). Results are expressed for each group as a percentage of activity calculated from the mean value of the vehicle-treated animals and compared to naïve animals, control paw or cut-off value, depending on the test (from the ANS Biotech historical database). Ligand Docking

healthy rats [8] = experiment: ALGOGram: healthy rats, tail flick test; type: in vivo, rat; conditions: 0.4 μg/μl i.t., 120 min after treatment
Experimental: as §3, §4

rats [9] = experiment: ALGOGram: acetic acid test (abdominal cramps); type: in vivo, rat; conditions: 0.4 μg/μl i.t., 120 min after treatment
Experimental: as §3, §4

rats [10] = experiment: ALGOGram: formalin test (paw licking time); type: in vivo, rat; conditions: 0.4 μg/μl i.t., 120 min after treatment
Experimental: as §3, §4

rats [11] = experiment: ALGOGram: Bennett model of peripheral mononeuropathy (paw pressure test); type: in vivo, rat; conditions: 0.4 μg/μl i.t., 120 min after treatment
Experimental: as §3, §4

rats [12] = experiment: ALGOGram: oxaliplatin-induced neuropathy (paw immersion test); type: in vivo, rat; conditions: 0.4 μg/μl i.t., 120 min after treatment, n=3
Experimental: as §3, §4

rats [13] = experiment: ALGOGram: carrageenan-induced mechanical hyperalgesia (paw pressure test); type: in vivo, rat; conditions: 0.4 μg/μl i.t., 120 min after treatment
Experimental: as §3, §4

rats [14] = experiment: ALGOGram: TNBS-induced visceral hypersensitivity (colonic distension); type: in vivo, rat; conditions: 0.4 μg/μl i.t., 120 min after treatment
Experimental: as §3, §4

healthy rats [15] = conditions: paw pressure test, 4 mg/kg s.c., T30 min; cited from earlier work
healthy rats [16] = conditions: tail flick test, 4 mg/kg s.c., T30 min; cited from earlier work
rats [17] = conditions: formalin test, 4 mg/kg s.c., T30 min, cited from earlier work
rats [18] = conditions: Brennan model, electronic Von Frey test, 4 mg/kg s.c., T30 min; cited from earlier work

Q: For O=C(Nc1cccc([C@H](c2nnnn2Cc2ccccc2)N2CCN(C(=O)c3ccco3)CC2)c1)c1ccc(Br)cc1 [1-159-2-R], which “Ca2+ influx triggered with 90 mM KCl (response, normalized)” value [1] is on record?
A: 67.37±2.294%

Q: With CNCC[C@H](Oc1cccc2ccccc12)c1cccs1 [Duloxetine] as the compound, how does the “Percentage of activity vs. vehicle, internal reference” value (“Percentage … internal reference” for short) (rats [2]) read?
A: 66%

Q: Which results are given for Cc1cccc(C)c1-n1nnnc1[C@@H](Cc1ccccc1)N1CCN(S(=O)(=O)c2ccccc2)CC1 [3-25-R]?
A: Activation V1/2 [3]: 2.383 ± 2.037 mV; Activation k (slope factor) [3]: 9.659 ± 1.798; Inactivation V1/2 [3]: −26.709 ± 2.655 mV; Inactivation k (slope factor) [3]: −15.208 ± 2.714; peak calcium current density [3]: −54.1±8.385 pA/pF; reduction in Ca2+ currents at peak current density [3]: ~44.17%; effect on CaV3.1 mediated currents (CaV3.1): negligible effects; effect on CaV3.2 mediated currents (CaV3.2): negligible effects; effect on CaV3.3 mediated currents (CaV3.3): negligible effects; Ca2+ influx triggered with 90 mM KCl (response, normalized) [1]: 62.43±1.967%

Q: For C[C@@H](c1ccccc1)n1nnnc1[C@H](c1ccsc1)N1CCC(n2c(=O)[nH]c3ccccc32)CC1 [5bl, 1-{1-[(S)-{1-[(1S)-1-phenylethyl]-1H-1,2,3,4-tetrazol-5-yl}(thiophen-3-yl)methyl]piperidin-4-yl}-2,3-dihydro-1H-1,3-benzodiazol-2-one], which “inhibition of influenza virus polymerase PA-PB1 protein-protein interactions” value [4] is on record?
A: active

Q: With COc1ccc2c(c1)c(CC(=O)O)c(C)n2C(=O)c1ccc(Cl)cc1 [Indomethacin] as the compound, how does the “Percentage … internal reference” value (rats [5]) read?
A: 92%

Q: What about the “Percentage … internal reference” value (rats [6]) of the same compound?
A: 64%

Q: What does the source list for Cc1ccc([C@H](c2nnnn2Cc2ccccc2)N2CCN(C(=O)c3ccccc3)CC2)s1 [3-14-3-S]?
A: Activation V1/2 [3]: 4.083 ± 2.038 mV; Activation k (slope factor) [3]: 9.308 ± 1.780; Inactivation V1/2 [3]: −25.246 ± 2.129 mV; Inactivation k (slope factor) [3]: −12.570 ± 2.035; peak calcium current density [3]: −41.70±7.927 pA/pF; reduction in Ca2+ currents at peak current density [3]: ~56.97%; effect on CaV3.1 mediated currents (CaV3.1): inhibited; IC50 (CaV3.1; depolarizing voltage of −10 mV): 23 µM; effect on CaV3.2 mediated currents (CaV3.2): inhibited; IC50 (CaV3.2; depolarizing voltage of −10 mV): 35.6 µM; effect on CaV3.3 mediated currents (CaV3.3): inhibited; IC50 (CaV3.3; depolarizing voltage of −10 mV): 26.3 µM; Percentage of activity vs. vehicle (healthy rats [7]): 3%; Percentage of activity vs. vehicle (healthy rats [8]): 5%; Percentage of activity vs. vehicle (rats [9]): 33%; Percentage of activity vs. vehicle (rats [10]; paw licking time early phase): 16%; Percentage of activity vs. vehicle (rats [10]; paw licking time late phase): 36%; Percentage of activity vs. vehicle (rats [11]): 14%; Percentage of activity vs. vehicle (rats [12]): 6%; Percentage of activity vs. vehicle (rats [13]): 29%; Percentage of activity vs. vehicle (rats [14]): −11%; Ca2+ influx triggered with 90 mM KCl (response, normalized) [1]: 87.25±2.245%

Q: For CN1CC[C@]23c4c5ccc(O)c4O[C@H]2[C@@H](O)C=C[C@H]3[C@H]1C5 [Morphine], which “Percentage … internal reference” value (healthy rats [15]) is on record?
A: 67%

Q: What about the “Percentage … internal reference” value (healthy rats [16]) of the same compound?
A: 66%

Q: What about the “Percentage … internal reference” value (rats [17]; early phase) of the same compound?
A: 65%

Q: And the “Percentage … internal reference” value (rats [17]; late phase)?
A: 77%

Q: And the “Percentage … internal reference” value (rats [18])?
A: 107%
